Data from patent publication US6737383B1, “Herbicidal oxadiazolidines” (priority 1999, dated 2004).

Assays:
[1] = test system: morningglory; experiment: Test B pre/postemergence morningglory; type: in vivo, Ipomoea hederacea
Procedure, shortened: (§1)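 Test chemicals in a non-phytotoxic solvent mixture with surfactant were sprayed preemergence onto planted seeds and postemergence onto plants 2 to 18 cm tall (1- to 4-leaf stage). After twelve to sixteen days in a greenhouse, injury was visually rated against untreated controls from 0 (no effect) to 10 (complete control).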

[2] = test system: purple nutsedge; experiment: Test B pre/postemergence purple nutsedge; type: in vivo, Cyperus rotundus
Procedure, shortened: as §1

[3] = test system: soybean; experiment: Test B pre/postemergence soybean; type: in vivo, Glycine max
Procedure, shortened: as §1

[4] = test system: sugar beet; experiment: Test B pre/postemergence sugar beet; type: in vivo, Beta vulgaris
Procedure, shortened: as §1

[5] = test system: pigweed; experiment: Test B pre/postemergence pigweed; type: in vivo, Amaranthus retroflexus
Procedure, shortened: as §1

[6] = test system: rice; experiment: Test B flood test rice; type: in vivo, Oryza sativa; conditions: Pre-emergence
Procedure, shortened: (§2)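 Each value is a visual injury score relative to controls, with 10 meaning complete control and 0 no effect. Evaluation took place twelve to sixteen days after the 2-leaf-stage plants were treated and kept in the greenhouse.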

[7] = test system: corn; experiment: Test B pre/postemergence corn; type: in vivo, Zea mays
Procedure, shortened: as §1

[8] = test system: blackgrass; experiment: Test B pre/postemergence blackgrass; type: in vivo, Alopecurus myosuroides
Procedure, shortened: as §1

[9] = test system: velvetleaf; experiment: Test B pre/postemergence velvetleaf; type: in vivo, Abutilon theophrasti
Procedure, shortened: as §1

[10] = test system: wild oat; experiment: Test B pre/postemergence wild oat; type: in vivo, Avena fatua
Procedure, shortened: as §1

[11] = test system: bedstraw; experiment: Test B pre/postemergence bedstraw; type: in vivo, Galium aparine
Procedure, shortened: as §1

[12] = test system: smallflower flatsedge; experiment: Test B flood test smallflower flatsedge; type: in vivo, Cyperus difformis; conditions: Pre-emergence
Procedure, shortened: as §2

[13] = test system: giant foxtail; experiment: Test B pre/postemergence giant foxtail; type: in vivo, Setaria faberii
Procedure, shortened: as §1

[14] = test system: rape; experiment: Test B pre/postemergence rape; type: in vivo, Brassica napus
Procedure, shortened: as §1

[15] = test system: crabgrass; experiment: Test B pre/postemergence crabgrass; type: in vivo, Digitaria sanguinalis
Procedure, shortened: as §1

[16] = test system: bamyardgrass; experiment: Test B flood test barnyardgrass; type: in vivo, Echinochloa crus-galli; conditions: Pre-emergence
Procedure, shortened: as §2

[17] = test system: duck salad; experiment: Test B flood test duck salad; type: in vivo, Heteranthera limosa; conditions: Pre-emergence
Procedure, shortened: as §2

[18] = test system: cocklebur; experiment: Test B pre/postemergence cocklebur; type: in vivo, Xanthium strumarium
Procedure, shortened: as §1

[19] = test system: wheat; experiment: Test B pre/postemergence wheat; type: in vivo, Triticum aestivum
Procedure, shortened: as §1

[20] = test system: surinam grass; experiment: Test B pre/postemergence surinam grass; type: in vivo, Brachiaria decumbens
Procedure, shortened: as §1

[21] = Preemergence, Rate 62 g/ha, scale of 0 to 10 where 0 is no effect and 10 is complete control
[22] = Preemergence, Rate 250 g/ha, scale of 0 to 10 where 0 is no effect and 10 is complete control
[23] = Preemergence, Rate 500 g/ha, scale of 0 to 10 where 0 is no effect and 10 is complete control
[24] = Rate 125 g/ha, Preemergence, scale of 0 to 10 where 0 is no effect and 10 is complete control
[25] = Rate 500 g/ha, Postemergence, scale 0 to 10, 0 no effect, 10 complete control
[26] = Rate 1000 g/ha, scale 0 to 10 (0 no effect, 10 complete control)
[27] = Rate 125 g/ha, flood test species, scale 0 to 10 where 0 is no effect and 10 is complete control
[28] = Rate 250 g/ha, flood-test species, scale 0 to 10, 0 is no effect, 10 is complete control
[29] = Rate 500 g/ha, flood test species, scale 0 to 10 (0 no effect, 10 complete control)
[30] = Rate 62 g/ha, Postemergence, scale of 0 to 10 where 0 is no effect and 10 is complete control
[31] = Rate 125 g/ha, Postemergence, scale 0 to 10

CCOC(=O)C(C)N(C(=O)n1oc(=O)n(CC)c1=O)c1ccc(F)cc1 (stereo not drawn) [Compound 248]
Morningglory plant response rating [1, 21]: 0 | Morningglory plant response rating [1, 22]: 0 | Plant response rating, Morningglory [1, 23]: 0 | Morningglory plant response rating [1, 24]: 0 | Plant response rating (0 to 10; 0 is no effect, 10 is complete control), Morningglory ([1]; Rate 250 g/ha, Postemergence): 0 | Morningglory plant response rating [1, 25]: 0 | Nutsedge plant response rating [2, 21]: 0 | Nutsedge plant response rating [2, 22]: 0 | Plant response rating, Nutsedge [2, 23]: 0 | Nutsedge plant response rating [2, 24]: 0 | Plant response rating (0 to 10; 0 is no effect, 10 is complete control), Nutsedge ([2]; Rate 250 g/ha, Postemergence): 0 | Nutsedge plant response rating [2, 25]: 0 | Soybean plant response rating [3, 21]: 0 | Soybean plant response rating [3, 22]: 0 | Plant response rating, Soybean [3, 23]: 0 | Soybean plant response rating [3, 24]: 0 | Soybean plant response rating [3, 25]: 1 | Sugarbeets plant response rating [4, 21]: 0 | Sugarbeets plant response rating [4, 22]: 0 | Plant response rating, Sugarbeets [4, 23]: 0 | Sugarbeets plant response rating [4, 24]: 0 | Sugarbeets plant response rating [4, 25]: 0 | Redroot pigweed plant response rating [5, 21]: 0 | Redroot pigweed plant response rating [5, 22]: 0 | Plant response rating, Redroot pigweed [5, 23]: 0 | Redroot pigweed plant response rating [5, 24]: 0 | Plant response rating (0 to 10; 0 is no effect, 10 is complete control), Redroot pigweed ([5]; Rate 250 g/ha, Postemergence): 0 | Redroot pigweed plant response rating [5, 25]: 0 | Rice plant response rating [6, 26]: 0 | Rice plant response rating [6, 27]: 0 | Rice plant response rating [6, 28]: 0 | Rice plant response rating [6, 29]: 0 | Corn plant response rating [7, 21]: 0 | Corn plant response rating [7, 22]: 0 | Plant response rating, Corn [7, 23]: 0 | Corn plant response rating [7, 30]: 0 | Corn plant response rating [7, 31]: 0 | Corn plant response rating [7, 24]: 0 | Plant response rating (0 to 10; 0 is no effect, 10 is complete control), Corn ([7]; Rate 250 g/ha, Postemergence): 0 | Corn plant response rating [7, 25]: 0 | Blackgrass plant response rating [8, 21]: 0 | Blackgrass plant response rating [8, 22]: 0 | Plant response rating, Blackgrass [8, 23]: 0 | Blackgrass plant response rating [8, 30]: 0 | Blackgrass plant response rating [8, 31]: 0 | Blackgrass plant response rating [8, 24]: 0 | Plant response rating (0 to 10; 0 is no effect, 10 is complete control), Blackgrass ([8]; Rate 250 g/ha, Postemergence): 0 | Blackgrass plant response rating [8, 25]: 0 | Velvetleaf plant response rating [9, 21]: 0 | Velvetleaf plant response rating [9, 22]: 0 | Plant response rating, Velvetleaf [9, 23]: 0 | Velvetleaf plant response rating [9, 24]: 0 | Velvetleaf plant response rating [9, 25]: 0 | Wild oats plant response rating [10, 21]: 0 | Wild oats plant response rating [10, 22]: 0 | Plant response rating, Wild oats [10, 23]: 0 | Wild oats plant response rating [10, 24]: 0 | Wild oats plant response rating [10, 25]: 0 | Bedstraw plant response rating [11, 21]: 0 | Bedstraw plant response rating [11, 22]: 0 | Plant response rating, Bedstraw [11, 23]: 0 | Bedstraw plant response rating [11, 30]: 0 | Bedstraw plant response rating [11, 31]: 0 | Bedstraw plant response rating [11, 24]: 0 | Plant response rating (0 to 10; 0 is no effect, 10 is complete control), Bedstraw ([11]; Rate 250 g/ha, Postemergence): 0 | Bedstraw plant response rating [11, 25]: 0 | S. Flatsedge plant response rating [12, 26]: 0 | S. Flatsedge plant response rating [12, 27]: 0 | S. Flatsedge plant response rating [12, 28]: 0 | S. Flatsedge plant response rating [12, 29]: 0 | Giant foxtail plant response rating [13, 21]: 0 | Giant foxtail plant response rating [13, 22]: 0 | Plant response rating, Giant foxtail [13, 23]: 0 | Giant foxtail plant response rating [13, 24]: 0 | Plant response rating (0 to 10; 0 is no effect, 10 is complete control), Giant foxtail ([13]; Rate 250 g/ha, Postemergence): 0 | Giant foxtail plant response rating [13, 25]: 0 | Rape plant response rating [14, 21]: 0 | Rape plant response rating [14, 22]: 0 | Plant response rating, Rape [14, 23]: 0 | Rape plant response rating [14, 24]: 0 | Plant response rating (0 to 10; 0 is no effect, 10 is complete control), Rape ([14]; Rate 250 g/ha, Postemergence): 0 | Rape plant response rating [14, 25]: 0 | Crabgrass plant response rating [15, 21]: 0 | Crabgrass plant response rating [15, 22]: 0 | Plant response rating, Crabgrass [15, 23]: 0 | Crabgrass plant response rating [15, 24]: 0 | Plant response rating (0 to 10; 0 is no effect, 10 is complete control), Crabgrass ([15]; Rate 250 g/ha, Postemergence): 0 | Crabgrass plant response rating [15, 25]: 0 | Barnyardgrass plant response rating [16, 26]: 0 | Barnyardgrass plant response rating [16, 27]: 0 | Barnyardgrass plant response rating [16, 28]: 0 | Barnyardgrass plant response rating [16, 29]: 0 | Ducksalad plant response rating [17, 26]: 0 | Ducksalad plant response rating [17, 27]: 0 | Ducksalad plant response rating [17, 28]: 0 | Ducksalad plant response rating [17, 29]: 0 | Cocklebur plant response rating [18, 21]: 0 | Cocklebur plant response rating [18, 22]: 0 | Plant response rating, Cocklebur [18, 23]: 0 | Cocklebur plant response rating [18, 30]: 0 | Cocklebur plant response rating [18, 31]: 0 | Cocklebur plant response rating [18, 24]: 0 | Plant response rating (0 to 10; 0 is no effect, 10 is complete control), Cocklebur ([18]; Rate 250 g/ha, Postemergence): 0 | Cocklebur plant response rating [18, 25]: 0 | Wheat plant response rating [19, 21]: 0 | Wheat plant response rating [19, 22]: 0 | Plant response rating, Wheat [19, 23]: 0 | Wheat plant response rating [19, 24]: 0 | Wheat plant response rating [19, 25]: 0 | B. signalgrass plant response rating [20, 21]: 0 | B. signalgrass plant response rating [20, 22]: 0 | Plant response rating, B. signalgrass [20, 23]: 0 | B. signalgrass plant response rating [20, 30]: 0 | B. signalgrass plant response rating ([20]; Rate 125 g/ha, Postemergence, scale 0 (no effect) to 10 (complete control)): 0 | B. signalgrass plant response rating [20, 24]: 0 | Plant response rating (0 to 10; 0 is no effect, 10 is complete control), B. signalgrass ([20]; Rate 250 g/ha, Postemergence): 0 | B. signalgrass plant response rating [20, 25]: 0
